In patent publication US9630956B2, “Compounds useful as inhibitors of ATR kinase” (Vertex Pharmaceuticals Incorporated, priority 2010, dated 2017):
Where two headings read alike, the source gives them in different places.

Legend:
[1] = test system: HCT116 colorectal cancer cells; test: Cisplatin Sensitization Assay (96h cell viability MTS); assay type: cell-based; conditions: concentration of compound required to reduce the IC50 of Cisplatin alone by at least 3-fold, 96h MTS
Description: Compounds can be screened for their ability to sensitize HCT116 colorectal cancer cells to Cisplatin using a 96h cell viability (MTS) assay. […] Compounds and Cisplatin are then both added simultaneously to the cell media in 2-fold serial dilutions from a top final concentration of 10 μM as a full matrix of concentrations in a final cell volume of 200 μl, and the cells are then incubated at 37° C. in 5% CO2. After 96h, 40 μl of […] (Promega G358a) is added to each well and the cells are incubated for 1 h at 37° C. in 5% CO2.

full-length ATR = full-length ATR (Homo sapiens (Human), UniProt Q13535); test: ATR Inhibition Assay (radioactive-phosphate incorporation); assay type: biochemical
full-length ATR, sequence (Q13535 whole entry): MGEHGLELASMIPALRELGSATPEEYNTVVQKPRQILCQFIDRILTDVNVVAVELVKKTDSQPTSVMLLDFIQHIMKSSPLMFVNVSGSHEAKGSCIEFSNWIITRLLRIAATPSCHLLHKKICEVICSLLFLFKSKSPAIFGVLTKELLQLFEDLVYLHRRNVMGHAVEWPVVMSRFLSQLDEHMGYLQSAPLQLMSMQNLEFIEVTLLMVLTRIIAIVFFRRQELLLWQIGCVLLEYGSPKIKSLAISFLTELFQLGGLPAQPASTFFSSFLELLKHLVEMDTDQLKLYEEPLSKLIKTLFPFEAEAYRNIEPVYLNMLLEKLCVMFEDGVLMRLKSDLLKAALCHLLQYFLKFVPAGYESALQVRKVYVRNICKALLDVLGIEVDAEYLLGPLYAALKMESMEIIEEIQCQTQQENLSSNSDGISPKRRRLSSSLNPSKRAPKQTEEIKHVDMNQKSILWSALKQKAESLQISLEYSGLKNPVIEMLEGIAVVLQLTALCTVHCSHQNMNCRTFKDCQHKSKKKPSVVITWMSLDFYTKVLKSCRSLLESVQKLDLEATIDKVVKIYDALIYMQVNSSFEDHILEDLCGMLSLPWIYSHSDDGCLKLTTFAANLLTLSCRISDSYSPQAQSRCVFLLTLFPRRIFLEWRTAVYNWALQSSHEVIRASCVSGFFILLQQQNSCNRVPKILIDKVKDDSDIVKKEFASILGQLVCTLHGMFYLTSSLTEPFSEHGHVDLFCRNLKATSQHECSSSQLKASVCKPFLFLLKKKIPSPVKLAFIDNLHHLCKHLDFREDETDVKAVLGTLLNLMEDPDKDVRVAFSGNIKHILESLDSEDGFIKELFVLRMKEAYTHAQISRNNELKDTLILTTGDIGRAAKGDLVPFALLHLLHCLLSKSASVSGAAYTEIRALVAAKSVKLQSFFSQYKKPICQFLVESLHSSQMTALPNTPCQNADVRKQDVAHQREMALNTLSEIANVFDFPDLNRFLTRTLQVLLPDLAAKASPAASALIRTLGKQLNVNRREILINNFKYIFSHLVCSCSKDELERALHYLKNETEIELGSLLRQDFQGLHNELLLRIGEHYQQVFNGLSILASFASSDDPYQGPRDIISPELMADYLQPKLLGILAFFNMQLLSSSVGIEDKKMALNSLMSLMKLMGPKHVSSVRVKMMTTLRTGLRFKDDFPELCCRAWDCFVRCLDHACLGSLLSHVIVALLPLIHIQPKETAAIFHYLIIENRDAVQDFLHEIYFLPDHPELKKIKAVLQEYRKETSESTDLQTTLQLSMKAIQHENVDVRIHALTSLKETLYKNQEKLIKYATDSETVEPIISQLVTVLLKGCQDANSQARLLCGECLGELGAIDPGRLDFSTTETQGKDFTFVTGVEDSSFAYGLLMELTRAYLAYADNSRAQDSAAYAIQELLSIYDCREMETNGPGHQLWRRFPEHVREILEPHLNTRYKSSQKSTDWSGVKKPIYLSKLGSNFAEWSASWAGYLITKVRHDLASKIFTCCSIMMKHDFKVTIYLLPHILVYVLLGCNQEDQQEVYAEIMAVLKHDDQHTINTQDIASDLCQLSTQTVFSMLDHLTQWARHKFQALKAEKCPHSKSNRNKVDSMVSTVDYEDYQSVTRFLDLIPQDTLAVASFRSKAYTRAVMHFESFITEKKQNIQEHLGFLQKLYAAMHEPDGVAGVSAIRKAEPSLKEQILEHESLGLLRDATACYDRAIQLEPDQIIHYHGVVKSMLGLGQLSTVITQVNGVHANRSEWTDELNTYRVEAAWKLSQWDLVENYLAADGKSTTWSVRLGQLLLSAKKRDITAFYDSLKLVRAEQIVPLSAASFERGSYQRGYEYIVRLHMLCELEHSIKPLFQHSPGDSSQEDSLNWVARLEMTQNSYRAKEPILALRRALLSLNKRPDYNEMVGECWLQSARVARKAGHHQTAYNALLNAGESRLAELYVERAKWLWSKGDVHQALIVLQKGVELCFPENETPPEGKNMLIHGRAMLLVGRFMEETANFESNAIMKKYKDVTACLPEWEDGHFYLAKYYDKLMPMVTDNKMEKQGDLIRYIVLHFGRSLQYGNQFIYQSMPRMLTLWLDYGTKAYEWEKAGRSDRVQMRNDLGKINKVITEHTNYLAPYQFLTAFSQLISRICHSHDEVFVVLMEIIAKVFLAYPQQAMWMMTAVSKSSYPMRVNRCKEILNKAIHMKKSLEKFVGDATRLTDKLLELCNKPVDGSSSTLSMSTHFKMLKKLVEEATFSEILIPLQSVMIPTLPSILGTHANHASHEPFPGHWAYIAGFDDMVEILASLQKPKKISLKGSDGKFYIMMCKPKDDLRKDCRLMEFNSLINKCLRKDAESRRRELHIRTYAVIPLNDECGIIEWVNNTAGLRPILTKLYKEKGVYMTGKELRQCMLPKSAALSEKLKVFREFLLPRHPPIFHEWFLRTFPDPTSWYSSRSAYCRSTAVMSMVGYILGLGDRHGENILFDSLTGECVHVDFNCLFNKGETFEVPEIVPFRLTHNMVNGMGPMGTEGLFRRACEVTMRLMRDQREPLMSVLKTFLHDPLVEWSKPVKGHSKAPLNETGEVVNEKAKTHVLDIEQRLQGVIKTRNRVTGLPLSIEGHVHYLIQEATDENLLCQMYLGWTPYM
Description: Compounds were screened for their ability to inhibit ATR kinase using a radioactive-phosphate incorporation assay. Assays were carried out in a mixture of 50 mM Tris/HCl (pH 7.5), 10 mM MgCl2 and 1 mM DTT. Final substrate concentrations were 10 μM [γ-33P]ATP (3 mCi 33P ATP/mmol ATP, Perkin Elmer) and 800 μM target peptide ([…]).
Assays were carried out at 25° C. in the presence of 5 nM full-length ATR. An assay stock buffer solution was prepared containing all of the reagents listed above, with the exception of ATP and the test compound of interest. 13.5 μL of the stock solution was placed in a 96 well plate followed by addition of 2 μL of DMSO stock containing serial dilutions of the test compound (typically starting from a final concentration of 15 μM with 3-fold serial dilutions) in duplicate (final DMSO concentration 7%). The plate was pre-incubated for 10 minutes at 25° C. and the reaction initiated by addition of 15 μL [γ-33P]ATP (final concentration 10 μM).
The reaction was stopped after 24 hours by the addition of 30 μL 0.1 M phosphoric acid containing 2 mM ATP. A multiscreen phosphocellulose filter 96-well plate (Millipore, Cat no. MAPHNOB50) was pretreated with 100 μL 0.2M phosphoric acid prior to the addition of 45 μL of the stopped assay mixture. The plate was washed with 5×200 μL 0.2M phosphoric acid. After drying, 100 μL Optiphase ‘SuperMix’ liquid scintillation cocktail (Perkin Elmer) was added to the well prior to scintillation counting (1450 Microbeta Liquid Scintillation Counter, Wallac).
After removing mean background values for all of the data points, Ki(app) data were calculated from non-linear regression analysis of the initial rate data using the Prism software package (GraphPad Prism version 3.0cx for Macintosh, GraphPad Software, San Diego Calif., USA).
Below is a chart showing the ATR Inhibition Ki values of compounds of the disclosure.

[2] = ATR Inhibition Ki(app), 10 μM ATP, 800 μM target peptide, 5 nM full-length ATR, 25° C.

Row | Ki (full-length ATR; [2]) | Ki (full-length ATR) | SMILES | CP3 shift [1]
1 | 5 to 50 nM |  | CNCc1ccc(-c2nnc(-c3nc(-c4ccc(=O)n(C(C)C)c4)cnc3N)o2)cc1 [Compound I-3] | 0.234 µM
2 | ≤ 5 nM |  | CNCc1ccc(-c2nnc(-c3nc(-c4ccc(=O)n(C(C)C)c4)cnc3N)o2)c(OC)c1 [Compound I-6] | 0.156 µM
3 | ≤ 5 nM |  | CNCc1ccc(-c2cc(-c3nc(-c4ccc(=O)n(C(C)C)c4)cnc3N)on2)cc1 [Compound I-11] | 0.156 µM
4 | ≤ 5 nM |  | CNCc1ccc(-c2cc(-c3nc(-c4ccc(=O)n(C(C)C#N)c4)cnc3N)on2)cc1 (centres unmarked) [Compound I-15] | 0.039 µM
5 | ≤ 5 nM |  | CNCc1ccc(-c2cc(-c3nc(-c4ccc(=O)n(C5CCC(C)C5)c4)cnc3N)on2)cc1 (centres unmarked) [Compound I-22] | 0.02 µM
6 | ≤ 5 nM |  | CNCc1ccc(-c2nnc(-c3nc(-c4ccc(=O)n(C5CCCC5)c4)cnc3N)o2)c(OC)c1 [Compound I-32] | 0.079 µM
7 | ≤ 5 nM |  | CNCc1ccc(-c2nnc(-c3nc(-c4ccc(=O)n(C(C)C5CC5)c4)cnc3N)o2)c(OC)c1 (centres unmarked) [Compound I-37] | 0.078 µM
8 | ≤ 5 nM |  | CC(N)c1cccc(-c2nnc(-c3nc(-c4ccc(=O)n(C(C)C)c4)cnc3N)o2)c1 (centres unmarked) [Compound I-42] | 0.156 µM
9 |  | 5 to 50 nM | CNCc1cccc(-c2cc(-c3nc(-c4ccc(=O)n(C(C)C)c4)cnc3N)on2)c1 [Compound I-49, 5-(5-amino-6-(3-(3-((methylamino)methyl)phenyl)isoxazol-5-yl)pyrazin-2-yl)-1-isopropylpyridin-2(1H)-one] | 0.625 µM
10 | ≤ 5 nM |  | CC(C)(C)NCc1ccc(-c2cc(-c3nc(-c4ccc(=O)n(C5CCCC5)c4)cnc3N)on2)cc1 [Compound I-50] | 0.312 µM
11 | ≤ 5 nM |  | CNCc1ccc(-c2cc(-c3nc(-c4ccc(=O)n(C(C)C5CC5)c4)cnc3N)on2)c(F)c1 (centres unmarked) [Compound I-54] | 0.039 µM
12 | ≤ 5 nM |  | CC(N)c1cccc(-c2cc(-c3nc(-c4ccc(=O)n(C(C)C)c4)cnc3N)on2)c1 (centres unmarked) [Compound I-55] | 0.039 µM
13 | ≤ 5 nM |  | CC(N)c1cccc(-c2cc(-c3nc(-c4ccc(=O)n(C(C)C5CC5)c4)cnc3N)on2)c1 (centres unmarked) [Compound I-57, 5-(5-amino-6-(3-(3-(1-aminoethyl)phenyl)isoxazol-5-yl)pyrazin-2-yl)-1-(1-cyclopropylethyl)pyridin-2(1H)-one] | 0.02 µM
14 |  |  | CC(C)n1cc(-c2cnc(N)c(-c3cc(-c4ccc(CN[C@H]5CCOC5)cc4)no3)n2)ccc1=O [Compound I-58] | 0.312 µM
15 | ≤ 5 nM |  | CC(C)NCc1ccc(-c2cc(-c3nc(-c4ccc(=O)n(C(C)C)c4)cnc3N)on2)cc1 [Compound I-60] | 0.312 µM
16 | ≤ 5 nM |  | CC(C)n1cc(-c2cnc(N)c(-c3cc(-c4ccc(CNC5CC5)cc4)no3)n2)ccc1=O [Compound I-61] | 0.078 µM
17 | ≤ 5 nM |  | CNCc1ccc(-c2cc(-c3nc(-c4ccc(=O)n(CC5CC5)c4)cnc3N)on2)cc1 [Compound I-62] | 0.078 µM
18 | ≤ 5 nM |  | CCNCc1ccc(-c2cc(-c3nc(-c4ccc(=O)n(C(C)C)c4)cnc3N)on2)cc1 [Compound I-63] | 0.156 µM
19 | ≤ 5 nM |  | CNCc1ccc(-c2cc(-c3nc(-c4ccc(=O)n(C(C)C)c4)cnc3N)on2)c(OC)c1 [Compound I-64] | 0.078 µM
20 | ≤ 5 nM |  | CNCc1ccc(-c2cc(-c3nc(-c4ccc(=O)n(CC5(C)CC5)c4)cnc3N)on2)cc1 [Compound I-68] | 0.039 µM
21 | ≤ 5 nM |  | CNCc1ccc(-c2cc(-c3nc(-c4ccc(=O)n(CC5CC5C)c4)cnc3N)on2)cc1 (centres unmarked) [Compound I-72] | 0.078 µM
22 | ≤ 5 nM |  | CNCc1ccc(-c2cc(-c3nc(-c4ccc(=O)n(CCC#N)c4)cnc3N)on2)cc1 [Compound I-73] | 0.156 µM
23 | ≤ 5 nM |  | CCC(Cn1cc(-c2cnc(N)c(-c3cc(-c4ccc(CNC)cc4)no3)n2)ccc1=O)OC (centres unmarked) [Compound I-74] | 0.078 µM
24 | ≤ 5 nM |  | CC[C@H](C)CCn1cc(-c2cnc(N)c(-c3cc(-c4ccc(CNC)cc4)no3)n2)ccc1=O [Compound I-77] | 0.039 µM
25 | ≤ 5 nM |  | CNCc1ccc(-c2cc(-c3nc(-c4c[nH]c(=O)c(Br)c4)cnc3N)on2)cc1 [Compound I-78] | 0.625 µM

Row | Ki (full-length ATR; [2]) | Ki (full-length ATR) | SMILES | CP3 shift [1]
26 |  | 5 to 50 nM | CCN(CC)C(=O)C(C)n1cc(-c2cnc(N)c(-c3cc(-c4ccc(CNC)cc4)no3)n2)ccc1=O (centres unmarked) [Compound I-101, 2-(5-(5-amino-6-(3-(4-((methylamino)methyl)phenyl)isoxazol-5-yl)pyrazin-2-yl)-2-oxopyridin-1(2H)-yl)-N,N-diethylpropanamide] | 
27 | ≤ 5 nM |  | CC(N)c1cccc(-c2cc(-c3nc(-c4ccc(=O)[nH]c4)cnc3N)on2)c1 (centres unmarked) [Compound I-103] | 
28 | ≤ 5 nM |  | CC(N)c1cccc(-c2cc(-c3nc(-c4ccc(=O)n(C(C)C(N)=O)c4)cnc3N)on2)c1 (centres unmarked) [Compound I-104] | 
29 | ≤ 5 nM |  | CNCc1ccc(-c2cc(-c3nc(-c4ccc(=O)n(C)c4)cnc3N)on2)cc1 [Compound I-108] | 
30 | ≤ 5 nM |  | CCCn1cc(-c2cnc(N)c(-c3cc(-c4ccc(CNC)cc4)no3)n2)ccc1=O [Compound I-109] | 
31 | ≤ 5 nM |  | Nc1ncc(-c2ccc(=O)[nH]c2)nc1-c1cc(-c2ccc(CNC3CC3)cc2)no1 [Compound I-111, 5-[5-amino-6-[3-[4-[(cyclopropylamino)methyl]phenyl]isoxazol-5-yl]pyrazin-2-yl]-1H-pyridin-2-one] | 
32 | ≤ 5 nM |  | Nc1ncc(-c2c[nH]c(=O)c(Cl)c2)nc1-c1cc(-c2ccc(CNC3CC3)cc2)no1 [Compound I-112] | 
33 | ≤ 5 nM |  | CNCc1ccc(-c2cc(-c3nc(-c4ccc(=O)n(CC5(C)COC5)c4)cnc3N)on2)cc1 [Compound I-113] | 
34 | ≤ 5 nM |  | CNCc1ccc(-c2cc(-c3nc(-c4c[nH]c(=O)c(C5=CCCCC5)c4)cnc3N)on2)cc1 [Compound I-114] | 
35 | ≤ 5 nM |  | CNCc1ccc(-c2cc(-c3nc(-c4c[nH]c(=O)c(C5CCCCC5)c4)cnc3N)on2)cc1 [Compound I-115] | 
36 | ≤ 5 nM |  | CNCc1ccc(-c2cc(-c3nc(-c4ccc(=O)n(C(CO)CO)c4)cnc3N)on2)cc1 [Compound I-117] | 
37 | ≤ 5 nM |  | CNCc1ccc(-c2cc(-c3nc(-c4ccc(=O)n(C(C)C)c4)cnc3N)on2)c(OC(C)C)c1 [Compound I-118] | 
38 | 5 to 50 nM |  | CNCc1ccc(-c2cc(-c3nc(-c4cc(F)c(=O)n(C(C)C)c4)cnc3N)on2)cc1 [Compound I-121] | 
39 |  |  | CCC(C#N)(CC)n1cc(-c2cnc(N)c(-c3cc(-c4ccc(CNC5CC5)cc4F)no3)n2)ccc1=O [Compound I-135] | 0.01 µM
40 | ≤ 5 nM |  | CCC(C#N)(CC)n1cc(-c2cnc(N)c(-c3cc(-c4ccc(CNC5CC5)cc4F)no3)n2)ccc1=O [Compound I-136] | 
41 | 5 to 50 nM |  | CCC(CC)n1cc(-c2cnc(N)c(-c3cc(-c4cccc(C5(N)CC5)c4)no3)n2)ccc1=O [Compound I-137] | 
42 | ≤ 5 nM |  | CCC(CC)n1cc(-c2cnc(N)c(-c3cc(-c4ccc(F)c(C(C)N)c4)no3)n2)ccc1=O (centres unmarked) [Compound I-141] | 
43 | ≤ 5 nM |  | CCC(CC)n1cc(-c2cnc(N)c(-c3cc(-c4cccc(C(C)N)c4F)no3)n2)ccc1=O (centres unmarked) [Compound I-142] | 
44 | ≤ 5 nM |  | CC(C)(C#N)n1cc(-c2cnc(N)c(-c3cc(-c4ccc(CNC5CC5)cc4)no3)n2)ccc1=O [Compound I-144] | 
45 | ≤ 5 nM |  | CCC(CC)n1cc(-c2cnc(N)c(-c3cc(-c4cccc(C(C)(C)N)c4)no3)n2)ccc1=O [Compound I-146] | 
46 | ≤ 5 nM |  | CC(CO)NCc1ccc(-c2cc(-c3nc(-c4ccc(=O)n(C(C)(C)C#N)c4)cnc3N)on2)cc1 (centres unmarked) [Compound I-147] | 
47 | ≤ 5 nM |  | CNCc1ccc(-c2nnc(-c3nc(-c4ccc(=O)[nH]c4)cnc3N)o2)cc1 [Compound I-148] | 
48 | 5 to 50 nM |  | CNCc1ccc(-c2nnc(-c3nc(-c4ccc(=O)n(C(C)C)c4C#N)cnc3N)o2)cc1 [Compound I-149] | 
49 | 50 to 100 nM |  | CNCc1ccc(-c2nnc(-c3nc(-c4ccc(=O)n(C(C)C)c4C)cnc3N)o2)c(C)c1 [Compound I-150] | 
50 | 5 to 50 nM |  | CNCc1ccc(-c2nnc(-c3nc(-c4ccc(=O)n(C(C)C)c4C#N)cnc3N)o2)c(C)c1 [Compound I-151] | 
